According to patent publication US4347252A, “Rodenticidal 1-(3,5-bistrifluoromethylphenyl)-3-(4-t-butylpiperidino)prop-1-yne” (priority 1980, dated 1982):

What was measured:
Format in all cases: in vivo
[1] = test system: Warfarin-resistant rats (Rattus norvegicus); test: Laboratory Feeding Tests on Wild Rodents: rats; details: 0.1% by weight in bait
From the text: (§1) Laboratory Feeding Tests on Wild Rodents
(§2) Warfarin-resistant rats (Rattus norvegicus) and mice (Mus musculus) from wild populations were fed, in the laboratory, on a bait consisting of coarse oatmeal (90%), wholemeal flour (5%) and corn oil (5%). After feeding for four days on this bait, it was replaced by a treated bait of the same composition, in which 0.1% by weight of the test compound 1-(3,5-bistrifluoromethylphenyl)-3-(4-tert-butylpiperidino)prop-1-yne hydrochloride had been incorporated.

[2] = test system: Warfarin-resistant rats (Rattus norvegicus); test: Field Tests on Rats on three farms
Experimental: Field Tests on Rats (Rattus norvegicus)
Field tests were carried out on warfarin-resistant rats on three farms. Baits were prepared from either medium oatmeal or soaked wheat in which was incorporated 0.1% by weight of the test compound used in Test 2 hereinbefore described. […] The amount of bait eaten per day was determined by weighing and the presence or absence of rats was deduced from the amount of bait eaten and by counting the traces of the presence of rats in patches of dust laid for this purpose.

mice (laboratory strain) = test: Acute Oral Toxicity in Mice (Laboratory Strain)
Experimental: Acute Oral Toxicity in Mice (Laboratory Strain)
Groups of mice were dosed orally with graded doses of the test compound in aqueous suspension and observed until there had been no deaths for at least three days. The acute oral LD50, that is to say the dose in mg/kg animal body weight necessary to kill 50% of the mice, was determined from the numbers of animals for each dose which died during the observation period by reference to published tables.

[3] = test system: Warfarin-resistant mice (Mus musculus); test: Laboratory Feeding Tests on Wild Rodents: mice; details: 0.1% by weight in bait
From the text: as §1, §2

mice (Mus musculus) [4] = test: Laboratory Feeding Tests on Mice in Pens, Test 3(b), choice of poisoned and plain bait
Experimental: (§3) Laboratory Feeding Tests on Mice in Pens
(§4) A bait comprising oatmeal, wholemeal flour and corn oil (plain bait) and a bait of similar composition but incorporating 0.1% by weight of the test compound used in Test 2 hereinbefore described (poisoned bait) were prepared and used in the following tests on mice (Mus musculus) housed in pens.
A choice of poisoned and plain bait was offered to groups of mice.

mice (Mus musculus) [5] = test: Field Test on Mice
Experimental: Field Test on Mice (Mus musculus)
(1) A non-toxic bait was laid at 3 mouse-infested sites and the amount of bait eaten was determined by weighing. (2) The non-toxic bait was then withdrawn and replaced by a similar bait in which was incorporated 0.1% by weight of the test compound used in Test 2 hereinbefore described (poisoned bait). The amount of poisoned bait which was eaten was similarly determined by weighing over a period of three weeks. (3) The poisoned bait was then withdrawn and replaced by the non-toxic bait and the amount of non-toxic bait which was eaten was also similarly determined by weighing. The results obtained are given in following Table 6, the degree of control being calculated by a comparison of the amounts of non-toxic bait which were eaten during the periods before and after use of the poisoned bait.

mice (Mus musculus) [6] = test: Laboratory Feeding Tests on Mice in Pens, Test 3(a), poisoned bait alone; details: 0.1% by weight in bait
Experimental: as §3, §4
The poisoned bait alone was offered to 4 male and 4 female mice.

CC(C)(C)C1CCN(CC#Cc2cc(C(F)(F)F)cc(C(F)(F)F)c2)CC1.Cl [1-(3,5-bistrifluoromethylphenyl)-3-(4-tert-butylpiperidino)prop-1-yne hydrochloride]
Days to Death, Mean ([1]; female rats): 5.8 days
Mortality ([1]; female rats): 5/5
Days to Death, Mean ([1]; male rats): 7.2 days
Mortality ([1]; male rats): 5/5
Total number of dead rats observed during test ([2]; Farm 1): 44
Amount of bait eaten ([2]; Farm 1, Day 1, 0.1% by weight in bait): 2060 g
Amount of bait eaten ([2]; Farm 1, Day 2): 440 g
Amount of bait eaten ([2]; Farm 1, Day 3): 130 g
Amount of bait eaten ([2]; Farm 1, Day 4): 60 g
Amount of bait eaten ([2]; Farm 1, Day 6): 245 g
Amount of bait eaten ([2]; Farm 1, Day 7): 130 g
Amount of bait eaten ([2]; Farm 1, Day 8): 85 g
Amount of bait eaten ([2]; Farm 1, Day 9): 30 g
Amount of bait eaten ([2]; Farm 1, Day 10): 10 g
Amount of bait eaten ([2]; Farm 1, Day 11): 40 g
Amount of bait eaten ([2]; Farm 1, Day 14): 65 g
Total number of dead rats observed during test ([2]; Farm 2): 8
Amount of bait eaten ([2]; Farm 2, Day 1, 0.1% by weight in bait): 1455 g
Amount of bait eaten ([2]; Farm 2, Day 2): 1100 g
Amount of bait eaten ([2]; Farm 2, Day 3): 730 g
Amount of bait eaten ([2]; Farm 2, Day 4): 210 g
Amount of bait eaten ([2]; Farm 2, Day 7): 405 g
Amount of bait eaten ([2]; Farm 2, Day 8): 135 g
Amount of bait eaten ([2]; Farm 2, Day 9): 40 g
Amount of bait eaten ([2]; Farm 2, Day 10): 30 g
Amount of bait eaten ([2]; Farm 2, Day 11): 10 g
Amount of bait eaten ([2]; Farm 2, Day 14): 95 g
Amount of bait eaten ([2]; Farm 2, Day 15): 45 g
Amount of bait eaten ([2]; Farm 2, Day 16): 0 g
Total number of dead rats observed during test ([2]; Farm 3): 113
Amount of bait eaten ([2]; Farm 3, Day 1, 0.1% by weight in bait): 4800 g
Amount of bait eaten ([2]; Farm 3, Day 2): 2680 g
Amount of bait eaten ([2]; Farm 3, Day 3): 360 g
Amount of bait eaten ([2]; Farm 3, Day 4): 445 g
Amount of bait eaten ([2]; Farm 3, Day 7): 565 g
Amount of bait eaten ([2]; Farm 3, Day 8): 205 g
Amount of bait eaten ([2]; Farm 3, Day 9): 185 g
Amount of bait eaten ([2]; Farm 3, Day 10): 65 g
Amount of bait eaten ([2]; Farm 3, Day 11): 15 g
rats initially present on the farms killed (estimated) ([2]; by the fourth day of the tests): about 80%
percentage kill compared with anticoagulant rodenticides ([2]; by the fourth day, vs usual kill with anticoagulant rodenticides used similarly): significantly higher percentage kill
LD50 (acute oral) (mice (laboratory strain); aqueous suspension): 23 mg/kg animal body weight
Observations: signs of poisoning (mice (laboratory strain); prior to death / after dosing): no marked signs
Days to Death, Mean ([3]; female mice): 5.8 days
Mortality ([3]; female mice): 5/5
Days to Death, Mean ([3]; male mice): 6.2 days
Mortality ([3]; male mice): 5/5
Mortality (mice (Mus musculus) [4]; 15 mice in pen): 93.7%
Quantity of poisoned bait eaten (mice (Mus musculus) [4]; 15 mice in pen, Days 1 to 7): 43.0 g
Quantity of poisoned bait eaten (mice (Mus musculus) [4]; 15 mice in pen, Days 8 to 14): 1.2 g
Quantity of poisoned bait eaten (mice (Mus musculus) [4]; 15 mice in pen, Days 15 to 21): 0.3 g
Mortality (mice (Mus musculus) [4]; 16 mice in pen (first line)): 93.8%
Quantity of poisoned bait eaten (mice (Mus musculus) [4]; 16 mice in pen (first line), Days 1 to 7): 55.0 g
Quantity of poisoned bait eaten (mice (Mus musculus) [4]; 16 mice in pen (first line), Days 8 to 14): 0.5 g
Quantity of poisoned bait eaten (mice (Mus musculus) [4]; 16 mice in pen (first line), Days 15 to 21): 0.0 g
Mortality (mice (Mus musculus) [4]; 16 mice in pen (fourth line)): 93.8%
Quantity of poisoned bait eaten (mice (Mus musculus) [4]; 16 mice in pen (fourth line), Days 1 to 7): 25.7 g
Quantity of poisoned bait eaten (mice (Mus musculus) [4]; 16 mice in pen (fourth line), Days 8 to 14): 2.0 g
Quantity of poisoned bait eaten (mice (Mus musculus) [4]; 16 mice in pen (fourth line), Days 15 to 21): 0.3 g
Mortality (mice (Mus musculus) [4]; 24 mice in pen): 91.7%
Quantity of poisoned bait eaten (mice (Mus musculus) [4]; 24 mice in pen, Days 1 to 7): 42.3 g
Quantity of poisoned bait eaten (mice (Mus musculus) [4]; 24 mice in pen, Days 8 to 14): 3.5 g
Quantity of poisoned bait eaten (mice (Mus musculus) [4]; 24 mice in pen, Days 15 to 21): 0.7 g
Estimated Control (mice (Mus musculus) [5]; Site 1): 98.8%
Amount of non-toxic bait eaten per week in period following use of poisoned bait (mice (Mus musculus) [5]; Site 1 (912 g per week before)): 11 g
Amount of poisoned bait eaten (mice (Mus musculus) [5]; Site 1, Week 1, 0.1% by weight in bait): 368 g
Amount of poisoned bait eaten (mice (Mus musculus) [5]; Site 1, Week 2): 1 g
Estimated Control (mice (Mus musculus) [5]; Site 2): 98.9%
Amount of non-toxic bait eaten per week in period following use of poisoned bait (mice (Mus musculus) [5]; Site 2 (897 g per week before)): 10 g
Amount of poisoned bait eaten (mice (Mus musculus) [5]; Site 2, Week 1, 0.1% by weight in bait): 441 g
Amount of poisoned bait eaten (mice (Mus musculus) [5]; Site 2, Week 2): 0 g
Estimated Control (mice (Mus musculus) [5]; Site 3): 100%
Amount of non-toxic bait eaten per week in period following use of poisoned bait (mice (Mus musculus) [5]; Site 3 (1880 g per week before)): 0 g
Amount of poisoned bait eaten (mice (Mus musculus) [5]; Site 3, Week 1, 0.1% by weight in bait): 929 g
Amount of poisoned bait eaten (mice (Mus musculus) [5]; Site 3, Week 2): 115 g
Amount of poisoned bait eaten (mice (Mus musculus) [5]; Site 3, Week 3): 11 g
Days to Death, Mean (mice (Mus musculus) [6]): 5.5 days
Mortality (mice (Mus musculus) [6]): 100%
Quantity of poisoned bait eaten (mice (Mus musculus) [6]; Day 1, 4 male and 4 female mice): 19.1 g
Quantity of poisoned bait eaten (mice (Mus musculus) [6]; Day 2): 18.8 g
Quantity of poisoned bait eaten (mice (Mus musculus) [6]; Day 3): 15.4 g
Quantity of poisoned bait eaten (mice (Mus musculus) [6]; Days 4-7): 13.7 g
